SMILES | melting point [°C]
COC(=O)c1nc(-c2ccccc2)n2c1CN=C(c1ccccc1F)c1cc(Cl)ccc1-2 | 208 to 209
COCCc1nc2c(N)nc3cc(OCc4cccnc4)ccc3c2n1CC(C)(C)O | 200 to 202
O=C(O)c1cc([N+](=O)[O-])cc2c1CCCC2 | 209 to 212
Nc1nc(Cl)c2ccccc2n1 | 275 to 278
Cc1ccc2c(NCc3ccc(NC(=O)c4ccc(C)nc4)cc3)nc(Cl)nc2c1 | 257 to 259
COC(=O)C1CN(Cc2ccccc2)c2ccccc2CN1S(=O)(=O)c1ccc(OC)cc1 (centres undefined) | 120 to 122
Cc1nc(CO)sc1-c1ccnc(Nc2ccc(N3CCCCC3)cc2)n1 | 194 to 195
O=C(Cc1ccc(Cl)c(Cl)c1)NC1N=C(C2CC2)c2ccccc2N(CC(F)(F)F)C1=O (single isomer, unassigned; (+)) | 193 to 194
COC(=O)C1=C(C)NC(C)=C(C(=O)OCCN2CCN(c3ccccn3)CC2)C1c1cccc([N+](=O)[O-])c1 (centres undefined) | 53 to 56
O=C(NCCCCCCOc1ccccc1C(=O)Nc1ccc(C(=O)N2CCCCc3ccccc32)cc1)c1ccccc1 | 178
CCCCC(=NNC(=O)c1ccccc1)c1ccncc1 | 142
Oc1ccc(-c2nnc(CCCCCCc3ccccc3)o2)cc1 | 125 to 129
CC(C)(CC(C)(c1ccccc1)c1ccc(O)c(C(=O)O)c1)c1ccccc1 (centres undefined) | 153 to 155
N#Cc1nc(Cl)c(Oc2ccccc2)nc1C#N | 115 to 118
Cc1cc(-c2cccc3c2C(=O)OC(C)(C)O3)on1 | 74
COc1cc2c(cc1-c1c(C)nn(C)c1C)-c1c(-c3cccs3)c3c(n1CC2)C(=O)N(C(C)C)CCN(C(C)=O)C3 | 178 to 180
COc1ccnc(CSc2nc3cc(F)c(F)cc3[nH]2)c1C | 216 to 218
Cc1ccc(OCc2c(F)cccc2Cl)c(NC(=N)Nc2ccc(Cl)cc2)n1 | 148 to 149
COc1ccc2c(n1)CCC(=NO)C2 | 124 to 126
CCc1nc2cnc3cc(O)ccc3c2n1CC(C)C | > 250
CCCCNC(=O)Oc1ccc(Oc2ccc([N+](=O)[O-])cc2)cc1 | 122 to 124
Cn1cc(Br)c(-c2cccc(NC(=O)Cc3ccc(OC(F)(F)F)cc3)c2)n1 | 141 to 142
O=CN1CCCN(Cc2ccc(Cl)cc2)C1=C[N+](=O)[O-] | 131 to 133
CC(C)(C)Nc1ccncc1NC(=S)NC1CCCCC1 | 216 to 218
CC1COCc2nc3c(N)nc4cc(C=CC(=O)N5CCOCC5)ccc4c3n21 (centres undefined) | > 250

SMILES | melting point [°C]
CC=CCNc1cc(C(=O)O)cc(S(N)(=O)=O)c1Oc1ccc(NC(C)=O)cc1 | 255 to 257
CN1CC(CNCCC#N)CC2c3cccc4[nH]cc(c34)CC21 (centres undefined) | 169 to 171
COC(=O)N1CSC(=Cc2cc(C(C)(C)C)c(O)c(C(C)(C)C)c2)C1=O | 165 to 168
COc1ccccc1NC(=O)Nc1nc(Nc2ccccc2-c2ccccc2)nc(N(CC(=O)O)Cc2ccc(C)cc2)n1 | 132 to 145
COc1ccc(Cn2nnc(-c3ccc(C(F)(F)F)cc3F)c2N)cc1 | 153 to 154
COC(=O)Cc1ccc2occ(-c3ccc(Br)cc3)c2c1 | 84 to 86
OC(COc1ccccc1-n1cccc1)CN1CCOCC1 (centres undefined) | 81 to 82
COc1ccc(C(=O)c2cc(Cl)ccc2N)c(O)c1OC | 112 to 115
CC(C)(C)OC(=O)NC(Cc1ccc(OCc2ccccc2)cc1)C(=O)NCC(=O)OCc1ccccc1 (centres undefined) | 101 to 104
CCOC(=O)C1CSCCN1C(=O)Nc1ccc(Cl)cc1 (centres undefined) | 152 to 154
O=C(NCCCCCO)c1cc([N+](=O)[O-])cc([N+](=O)[O-])c1Cl | 100 to 103
O=C(Nc1ccc(-n2nc(C(F)(F)F)cc2C(F)(F)F)cc1)c1ccc[nH]1 | > 240
CCC1CC(=O)C2Oc3c(OC)ccc4c3C23CCN(C#N)C(C4)C13 (centres undefined) | 212 to 217
COC1C=C(Br)C(=O)CO1 (centres undefined) | 74 to 75
CCCc1cc(=O)n2cccc(O)c2n1 | 95 to 96
COc1ccc2c(Cc3c(Cl)cncc3Cl)n[nH]c(=O)c2c1 | 259 to 262
Cc1ccc(C(=O)n2c3c(c4cc(F)ccc42)CC(C(=O)O)CC3)cc1 (centres undefined) | 229 to 231
CC12C=CC(C)(O1)C(Br)C(=O)C2Br (centres undefined) | 115 to 120
CS(=O)CCNC(N)=O (centres undefined) | 88
COC(=O)C(c1ccc(N)cc1)C1CC1 (centres undefined) | 68 to 69
Cc1cc(O)nc2c1c(C)nn2-c1ccccn1 | 254 to 255
CC(=O)NCCOC(=O)C(Oc1cccc(C(F)(F)F)c1)c1ccc(Cl)cc1 (centres undefined) | 93 to 95
COc1ccc(Cl)cc1C(=O)Nc1ccc(CC(=O)O)cc1 | 152
O=C1COc2cc(F)c(F)cc2N1 | 214 to 219

More lines, now with the values ahead:

melting point [°C] | SMILES
> 250 | CNC1Oc2cc(Cl)cc(-c3ccccc3Cl)c2O1 (centres undefined)
100 to 102 | COC1C2=C3C(=CN1OC)OCCC3CC(C(C)=O)C2 (centres undefined)
105 to 106 | Cc1cccc2c(=O)[nH]c(CCCN(C)C)cc12
204 to 206 | CSc1cc(C)nc(SC)c1NC(=O)CC=CC1=C(c2ccccc2)c2ccccc2OC1
195 | COc1ccc(C(=O)n2c3c(c4ccccc42)CC(C(=O)O)CC3)cc1 (centres undefined)
236 to 238 | CCc1c(-c2ccc(OCc3ccccc3)cc2)c2c(C(=O)N(C)C)c(C(=O)O)c3cccc1n32
186 to 190 | NS(=O)(=O)c1ccccc1-c1ccccn1
135 to 138 | CCCCOCCOc1ccc(-c2ccc(N3CCCCCC3)c(C=CC(=O)O)c2)cc1
224 to 226 | CC(=O)NCCNc1nc(Nc2ccc(Cl)cc2)ncc1[N+](=O)[O-]
143 to 147 | O=C(C=Cc1ccccc1)c1cccc(O)c1
159 to 160 | CS(=O)(=O)c1nnc(S(=O)(=O)Cc2ccc(Cl)cc2)s1
132 to 135 | CN(C)CC(C(O)c1ccc([N+](=O)[O-])cc1)N1CCC(Cc2ccccc2)CC1 (centres undefined)
215 to 216 | O=c1c2ccc(OCCCN3CCN(Cc4ccc(Cl)cc4)CC3)cc2oc2nn[nH]c12
220 to 223 | COC(=O)c1ccc(C(=O)Nc2c(C)c(C)c3c(c2C)C(c2ccc(C(C)C)cc2)C(C)(C)O3)cc1 (centres undefined)
265 to 270 | Cc1c(C(=O)O)nc2c(=O)[nH]c3cc(C(F)(F)F)c(-n4cccc4)cc3n12
326 | O=C(CCc1ccccc1)Nc1ccc(C(=O)NN=C2C(=O)Nc3ccc(Br)cc32)cc1
86 | C=CCOC(=O)c1c(C)nc2c(cnn2CCCC#N)c1N
189 to 192 | CN1Cc2cccnc2N(c2cccc(F)c2)C1=O
94 to 96.5 | S=c1[nH]ccn1CCCc1cccs1
229 to 231 | COC(=O)C1=C(C)NC2=C(C(=O)OC2)C1c1cccc(Br)c1 (centres undefined)
> 260 | O=C(O)Cc1cc(C(=O)Cc2ccc(C(=O)O)cc2)ccc1O
228 to 230 | COc1ccc(-c2cc3ccc(OC)cc3[nH]2)cc1
187 to 188 | Nc1ccc(Oc2ccc(C(=O)O)c(O)c2)cc1
60 to 62 | CCOC(=O)COCCc1cc2cc(Cl)ccc2n1S(=O)(=O)c1ccccc1
186 to 191 | CCN(CC)c1ccc(-n2c(CC(=O)O)c(C(=O)O)c3cc(Oc4cccc(Cl)c4)ccc32)cc1

melting point [°C] | SMILES
210 to 211 | Clc1ccc(-c2c(-c3ccncc3)nc(-c3c(Cl)cccc3Cl)n2C2CC2)cc1
179 to 181 | Cc1cccc(S(=O)(=O)Nc2cc(C)c(S(=O)(=O)C[N+](=O)[O-])c(C)c2)c1
84 to 86 | CCOC(=O)c1cc(C)c(Cl)nc1C(=O)OCC
106 to 109 | CCCCCCCCC(=O)NCC(=O)O
162 to 163 | Cc1c(C=NO)c2cc(F)ccc2n1-c1ccc(O)cc1
62 to 65 | CCc1cc(C)cc(CC)c1C1C(=O)CC(CC(C)S(=O)(=O)CC)CC1=O (centres undefined)
116 to 118 | CCCCCCNC(=O)OCc1ccc(CNC(=O)OC2CCN(C(=O)Oc3ccc(Oc4ccccc4)cc3)CC2)cc1
194 to 196 | COc1cc2c(cc1O)[nH]c1cc(-c3ccccc3Cl)c3c(c12)C(=O)NC3=O
131 to 132 | O=C1NC(=O)N(CCCc2ccccc2)C1O (centres undefined)
226 to 230 | CCN(CC)CCCNc1ncc2cc(-c3c(Br)cccc3Br)c(N)nc2n1
281 to 283 | O=c1cc(-c2ccccc2Cl)[nH]c(=O)n1-c1ccc(C(F)(F)F)cn1
170 | CC(=O)Nc1ccccc1N(CC(=O)OC(C)(C)C)C(=O)CN1C(=O)c2ccccc2C1=O
169 to 170 | FC(F)(F)c1ccc(CCc2cc(OCc3ccccc3)c(OCc3ccccc3)nn2)cc1Cl
159 to 161 | O=[N+]([O-])c1cnc(Nc2ccccc2F)c([N+](=O)[O-])c1
80 to 81 | CCOC(=O)c1oc(-c2ccc(Cl)cc2)nc1C
72 to 73 | CCC(C)c1nn(-c2ccc(C(F)(F)F)cn2)cc1CCCO (centres undefined)
203 to 206 | NC(=O)N1CCC(Oc2ccc([N+](=O)[O-])cc2)(c2ccccc2)CC1
76 to 77 | COC1OCC[C@@H]1NC(=O)[C@H](CC(C)C)NC(=O)[C@H](CC(C)C)NC(=O)OCc1ccccc1 (some centres undefined)
52 to 54.5 | N#CCSc1c[nH]c2ccccc12
159 to 161 | CC1(C)C=C(NC=NC#N)c2cc(C#N)ccc2O1
45 | COc1cc(Cl)cc(Cl)c1C1=NC(C)(C)CO1
187 to 189 | OCc1ccc2c(c1)Nc1nccnc1S2
105 to 110 | OCC1OC(n2cnc3c(NC4CC=CCC4c4cccs4)ncnc32)C(O)C1O (centres undefined)
181 to 185 | C[C@@H](NS(=O)(=O)c1ccc(-c2c(C#N)c3cc(Cl)ncc3n2C2CCC2)nc1)C(F)(F)F
143 | CN(C)CCOc1cccc(CC(Nc2cc(-c3ccc(OCc4ccccc4)cc3)ncn2)C(=O)O)c1 (centres undefined)

— a melting point compilation (Tetko et al.; mined from patent text by program, amines drawn as free bases though some values may be those of a salt)
